In ChEMBL document CHEMBL1122460, “Preparation of some 10-[3-(dimethylamino)-1-propyl]-10H-pyrazino[2,3-b][1,4] benzothiazines as potential neuroleptics” (J Med Chem, 1983):

What was measured:
Assay type in all cases: protein assay
[1] = biological target: Dopamine receptor; assay: Tested for displacement of rat caudate dopamine receptors by using [3H]spiperone as radioligand
[2] = biological target: Dopamine receptor; assay: Tested for displacement of rat striatal dopamine receptors by using [3H]apomorphine as radioligand
[3] = biological target: Dopamine receptor; assay: Tested for displacement of rat caudate dopamine receptors by using [3H]apomorphine as radioligand

IC50 [1] [nM]	IC50 [2] [nM]	IC50 [3] [nM]	Compound
9166	5968		CN(C)CCCN1c2cc(Cl)ccc2Sc2nccnc21
553		1222	CN(C)CCCN1c2ccccc2Sc2nc(Cl)cnc21
62.1		67.3	CN(C)CCCN1c2ccccc2Sc2ncc(Cl)nc21
382	103		Cc1cnc2c(n1)N(CCCN(C)C)c1ccccc1S2
